Assay results from patent EP4635500A1, “THERAPEUTIC AGENT FOR BACTERIAL INFECTION” (Sumitomo Pharma Co., Ltd., priority 2022, dated 2024).
In brackets after ≈: the same amount, converted by molar mass. Where two headings read alike, the source gives them in different places.

Assays:
Citrobacter freundii = assay: MIC and MBC, broth microdilution (Example 4, Table 3); format: cell-based; settings: Citrobacter freundii CDC-157 (NDM-1)
A. baumannii = assay: MIC, broth microdilution, 6 strains (Example 6, Table 7); format: cell-based; settings: Acinetobacter baumannii, Carbapenem-resistant, read-out: MIC
[1] = tested on: K. pneumoniae ATCCBAA-2344 producing KPC-2; assay: Systemic infection lethal mouse model, ED50 (Example 14, Table 31); settings: 7 days after infection
Method: The test strains on the agar medium were suspended in saline and adjusted to a Klett unit of about 200 using a Klett Photoelectric Colorimeter. […] Male ICR mice were inoculated intraperitoneally with 0.2 mL of the bacterial suspension. Two hours after the inoculation, saline or a solution for administering the agent at each concentration was administered subcutaneously to the mice in a single dose. The number of mice that survived from Day 1 to Day 7 after infection was recorded.

Gram-positive bacteria = assay: MIC, agar dilution, anaerobic bacteria (Example 9, Tables 21, 26); format: cell-based
Porphyromonas spp. = assay: MIC, agar dilution, anaerobic bacteria (Example 9, Tables 19, 24); format: cell-based; settings: for MIC: (n)=Compound A µg/mL, 0=Compound A alone antibacterial
[2] = table at the place of Table 24, Prevotella spp.

Q: For `CC(C)(O/N=C(\C(=O)N[C@@H]1C(=O)N2C(C(=O)[O-])=C(C[n+]3ccccc3)CS[C@H]12)c1csc(N)n1)C(=O)O` [CAZ, ceftazidime], which MBC (Citrobacter freundii) is on record?
A: Its MBC is > 128 µg/mL.

Q: What about the MIC (Citrobacter freundii) of the same molecule?
A: The MIC was > 128 µg/mL.

Q: For `C[C@@H](O)[C@H]1C(=O)N2C(C(=O)O)=C(S[C@@H]3CN[C@H](C(=O)N(C)C)C3)[C@H](C)[C@H]12` [MEPM, meropenem], which MIC (A. baumannii; A. baumannii strain with AMR gene ADC-25, OXA-23, OXA-66, TEM-ID) is on record?
A: Its MIC is 64 µg/mL (≈ 167 µM).

Q: And the MIC (A. baumannii; A. baumannii strain with AMR gene ADC-25, XA-23, OXA-66, strA, strB, sul2, TEM-1D)?
A: The MIC was 64 µg/mL (≈ 167 µM).

Q: What about the MIC (A. baumannii; A. baumannii strain with AMR gene OXA-23, OXA-69, TEM-1D) of the same molecule?
A: Its MIC is 16 µg/mL (≈ 41.7 µM).

Q: What about the Survival rate ([1]; Dose 10 mg/kg) of the same molecule?
A: Its Survival rate is 10%.

Q: And the Survival rate ([1]; Dose 30 mg/kg)?
A: Its Survival rate is 10%.

Q: What about the Survival rate ([1]; Dose 60 mg/kg) of the same molecule?
A: Its Survival rate is 10%.

Q: And the Survival rate ([1]; Dose 100 mg/kg)?
A: The Survival rate was 50%.

Q: And the MIC50 (Gram-positive bacteria)?
A: The MIC50 was 0.06 µg/mL (≈ 0.156 µM).

Q: And the MIC90 (Gram-positive bacteria)?
A: Its MIC90 is 2 µg/mL (≈ 5.22 µM).

Q: And the MIC (Gram-positive bacteria; ATCC43255, KUB No. 3518 Clostridioides difficile ATCC 43255, read-out: MIC)?
A: Its MIC is 2 µg/mL (≈ 5.22 µM).

Q: What about the MIC (Gram-positive bacteria; ATCC700057, KUB No. 2978 Clostridioides difficile ATCC 700057, read-out: MIC) of the same molecule?
A: The MIC was 2 µg/mL (≈ 5.22 µM).

Q: What about the MIC (Gram-positive bacteria; ATCCBAA1803, KUB No. 3511 Clostridioides difficile ATCC BAA-1803, read-out: MIC) of the same molecule?
A: The MIC was 4 µg/mL (≈ 10.4 µM).

Q: And the MIC (Gram-positive bacteria; ATCCBAA1870, KUB No. 3385 Clostridioides difficile ATCC BAA-1870, read-out: MIC)?
A: The MIC was 4 µg/mL (≈ 10.4 µM).

Q: And the MIC (Gram-positive bacteria; Cutibacterium acnes, ATCC11827)?
A: The MIC was ≤ 0.03 µg/mL.

Q: And the MIC (Gram-positive bacteria; Eggerthella lenta, ATCC43055)?
A: The MIC was 0.5 µg/mL (≈ 1.3 µM).

Q: And the MIC (Gram-positive bacteria; Finegoldia magna, ATCC29328)?
A: The MIC was 0.06 µg/mL (≈ 0.156 µM).

Q: What about the MICrange (Gram-positive bacteria; Gram-positive bacteria) of the same molecule?
A: The MICrange was ≤0.03 to 4 µg/mL.

Q: What about the MIC50 (Gram-positive bacteria; Gram-positive bacteria, read-out: MIC50) of the same molecule?
A: Its MIC50 is 0.06 µg/mL (≈ 0.156 µM).

Q: What about the MIC90 (Gram-positive bacteria; Gram-positive bacteria, read-out: MIC90) of the same molecule?
A: Its MIC90 is 2 µg/mL (≈ 5.22 µM).

Q: What about the MIC (Gram-positive bacteria; KUB No. 3013 Bulleidia extructa, read-out: MIC) of the same molecule?
A: The MIC was 0.12 µg/mL (≈ 0.313 µM).

Q: And the MIC (Gram-positive bacteria; KUB No. 3014 Atropobium rimae, read-out: MIC)?
A: Its MIC is 0.06 µg/mL (≈ 0.156 µM).

Q: What about the MIC (Gram-positive bacteria; Olsenella uli) of the same molecule?
A: Its MIC is ≤ 0.03 µg/mL.

Q: What about the MIC (Gram-positive bacteria; Peptoniphilus asaccharolyticus, ATCC14963) of the same molecule?
A: Its MIC is ≤ 0.03 µg/mL.

Q: And the MIC (Gram-positive bacteria; Peptoniphilus indolicus)?
A: The MIC was ≤ 0.03 µg/mL.

Q: What about the MIC (Gram-positive bacteria; Peptostreptococcus anaerobius) of the same molecule?
A: The MIC was 2 µg/mL (≈ 5.22 µM).

Q: What about the MIC (Gram-positive bacteria; Schaalia odontolytica, ATCC17929, KUB No. 3488 Actinomyces odontolyticus ATCC 17929, read-out: MIC) of the same molecule?
A: The MIC was 0.12 µg/mL (≈ 0.313 µM).

Q: And the MIC (Porphyromonas spp.; KUB No. 6663 Porphyromonas gingivalis)?
A: The MIC was ≤ 0.03 µg/mL.

Q: And the MIC (Porphyromonas spp.; KUB No. 6666 Porphyromonas gingivalis)?
A: Its MIC is ≤ 0.03 µg/mL.

Q: What about the MIC (Porphyromonas spp.; KUB No. 6667 Porphyromonas gingivalis) of the same molecule?
A: The MIC was ≤ 0.03 µg/mL.

Q: What about the MIC (Porphyromonas spp.; KUB No. 6668 Porphyromonas gingivalis) of the same molecule?
A: The MIC was ≤ 0.03 µg/mL.

Q: And the MIC (Porphyromonas spp.; KUB No. 6669 Porphyromonas gingivalis)?
A: Its MIC is ≤ 0.03 µg/mL.

Q: And the MIC (Porphyromonas spp.; KUB No. 6670 Porphyromonas gingivalis)?
A: Its MIC is ≤ 0.03 µg/mL.

Q: And the MIC (Porphyromonas spp.; KUB No. 6671 Porphyromonas gingivalis)?
A: The MIC was ≤ 0.03 µg/mL.

Q: What about the MIC (Porphyromonas spp.; KUB No. 6672 Porphyromonas gingivalis) of the same molecule?
A: The MIC was ≤ 0.03 µg/mL.

Q: And the MIC (Porphyromonas spp.; KUB No. 6673 Porphyromonas gingivalis)?
A: The MIC was ≤ 0.03 µg/mL.

Q: And the MIC (Porphyromonas spp.; KUB No. 6674 Porphyromonas gingivalis)?
A: The MIC was ≤ 0.03 µg/mL.

Q: And the MIC (Porphyromonas spp.; KUB No. 6676 Porphyromonas gingivalis)?
A: Its MIC is ≤ 0.03 µg/mL.

Q: What about the MIC (Porphyromonas spp.; KUB No. 6677 Porphyromonas gingivalis) of the same molecule?
A: The MIC was ≤ 0.03 µg/mL.

Q: And the MIC (Porphyromonas spp.; KUB No. 6678 Porphyromonas gingivalis)?
A: Its MIC is ≤ 0.03 µg/mL.

Q: And the MIC (Porphyromonas spp.; KUB No. 6679 Porphyromonas gingivalis)?
A: Its MIC is ≤ 0.03 µg/mL.

Q: And the MIC (Porphyromonas spp.; KUB No. 6680 Porphyromonas gingivalis)?
A: The MIC was ≤ 0.03 µg/mL.

Q: What about the MIC (Porphyromonas spp.; KUB No. 6681 Porphyromonas gingivalis) of the same molecule?
A: Its MIC is ≤ 0.03 µg/mL.

Q: And the MIC (Porphyromonas spp.; KUB No. 6682 Porphyromonas gingivalis)?
A: Its MIC is ≤ 0.03 µg/mL.

Q: And the MIC (Porphyromonas spp.; KUB No. 6683 Porphyromonas gingivalis)?
A: The MIC was ≤ 0.03 µg/mL.

Q: What about the MIC (Porphyromonas spp.; KUB No. 6684 Porphyromonas gingivalis) of the same molecule?
A: Its MIC is ≤ 0.03 µg/mL.

Q: And the MIC (Porphyromonas spp.; KUB No. 6685 Porphyromonas gingivalis)?
A: The MIC was ≤ 0.03 µg/mL.

Q: What about the MIC (Porphyromonas spp.; KUB No. 6686 Porphyromonas gingivalis) of the same molecule?
A: Its MIC is ≤ 0.03 µg/mL.

Q: What about the MIC (Porphyromonas spp.; KUB No. 6687 Porphyromonas gingivalis) of the same molecule?
A: Its MIC is ≤ 0.03 µg/mL.

Q: And the MIC (Porphyromonas spp.; KUB No. 6688 Porphyromonas gingivalis)?
A: Its MIC is 0.03 µg/mL (≈ 0.0782 µM).

Q: And the MIC (Porphyromonas spp.; Porphyromonas, KUB No. 6665 Porphyromonas assaccharolytica)?
A: Its MIC is ≤ 0.03 µg/mL.

Q: And the MIC50 (Porphyromonas spp.; Porphyromonas, n=26, combination: Compound A at 4 ug/mL, read-out: MIC50)?
A: Its MIC50 is ≤ 0.03 µg/mL.

Q: What about the MIC90 (Porphyromonas spp.; Porphyromonas, n=26, combination: Compound A at 4 ug/mL, read-out: MIC90) of the same molecule?
A: Its MIC90 is ≤ 0.03 µg/mL.

Q: And the MIC50 (Porphyromonas spp.; [2])?
A: Its MIC50 is ≤0.03 µg/mL.

Q: What about the MIC90 (Porphyromonas spp.; [2]) of the same molecule?
A: Its MIC90 is ≤0.03 µg/mL.

Q: And the MICrange (Porphyromonas spp.; [2])?
A: The MICrange was ≤0.03 µg/mL.
